Values quoted from earlier work as cited in US20240043473A1, “NOOTROPIC PEPTIDES FOR TREATING LYSOSOMAL STORAGE DISEASES” (Phoenix Nest Inc., priority 2021, published 2024).

Tested on: BDNF and its signaling receptor TrkB in the hippocampus
Conditions: in animals; cited from earlier work

Semax: synthetic analogue of ACTH(4-10), consisting of ACTH(4-7) and the C-terminal tripeptide Pro-Gly-Pro; MEHFPGP (SEQ ID NO: 1)
levels and expression of BDNF and its signaling receptor TrkB in the hippocampus: rapidly elevates the levels and expression
serotonergic and dopaminergic brain systems: rapidly activates
